Reference: patent US7968716B2, “Caspase inhibitors and uses thereof” (Vertex Pharmaceuticals Incorporated, priority 2000, dated 2011)

Legend:
[1] = target: T1, recombinant, purified human Caspase-3 (Homo sapiens, UniProt P42574); assay: Caspase-3 enzyme assay, fluorogenic substrate cleavage; type: biochemical; settings: second order rate constant of enzyme inactivation; substrate Acetyl-Asp-Glu-Val-Asp-amino-4-methylcoumarin
T1 sequence (P42574 29-175 limits assumed): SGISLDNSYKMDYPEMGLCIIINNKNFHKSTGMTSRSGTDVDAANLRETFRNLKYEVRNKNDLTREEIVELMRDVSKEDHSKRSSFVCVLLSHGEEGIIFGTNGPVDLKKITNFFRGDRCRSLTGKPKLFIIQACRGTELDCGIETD
T1 sequence (P42574 176-277 limits assumed): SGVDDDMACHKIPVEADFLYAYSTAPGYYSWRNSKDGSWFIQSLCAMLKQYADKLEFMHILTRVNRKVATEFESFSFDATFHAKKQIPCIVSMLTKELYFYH
Source text: (§1) The assays for caspase inhibition are based on the cleavage of a fluorogenic substrate by recombinant, purified human Caspases -1, -3, -7 or -8. The assays are run in essentially the same way as those reported by Garcia-Calvo et al. (J. Biol. Chem. 273 (1998), 32608-32613), using a substrate specific for each enzyme. The substrate for Caspase-1 is Acetyl-Tyr-Val-Ala-Asp-amino-4-methylcoumarin. The substrate for Caspases -3, -7 and -8 is Acetyl-Asp-Glu-Val-Asp-amino-4-methylcoumarin.
(§2) The observed rate of enzyme inactivation at a particular inhibitor concentration, kobs, is computed by direct fits of the data to the equation derived by Thornberry et al. (Biochemistry 33 (1994), 3943-3939) using a nonlinear least-squares analysis computer program (PRISM 2.0; GraphPad software). To obtain the second order rate constant, kinact, kobs values are plotted against their respective inhibitor concentrations and kinact values are subsequently calculated by computerized linear regression.

[2] = target: T2, recombinant, purified human Caspase-1 (Homo sapiens, UniProt P29466); assay: Caspase-1 enzyme assay, fluorogenic substrate cleavage; type: biochemical; settings: second order rate constant of enzyme inactivation; substrate Acetyl-Tyr-Val-Ala-Asp-amino-4-methylcoumarin
T2 sequence (P29466 120-297 limits assumed): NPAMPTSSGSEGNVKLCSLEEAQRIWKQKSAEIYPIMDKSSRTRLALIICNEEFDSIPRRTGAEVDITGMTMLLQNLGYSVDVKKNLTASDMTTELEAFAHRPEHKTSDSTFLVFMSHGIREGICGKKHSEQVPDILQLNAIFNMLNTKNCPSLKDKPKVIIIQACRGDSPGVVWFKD
T2 sequence (P29466 317-404 limits assumed): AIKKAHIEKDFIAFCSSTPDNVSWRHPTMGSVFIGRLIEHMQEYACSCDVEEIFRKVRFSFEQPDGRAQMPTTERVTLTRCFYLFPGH
Source text: as §1, §2

[3] = target: T3, recombinant, purified human Caspase-7 (Homo sapiens, UniProt P55210); assay: Caspase-7 enzyme assay, fluorogenic substrate cleavage; type: biochemical; settings: second order rate constant of enzyme inactivation; substrate Acetyl-Asp-Glu-Val-Asp-amino-4-methylcoumarin
T3 sequence (P55210 24-198 limits assumed): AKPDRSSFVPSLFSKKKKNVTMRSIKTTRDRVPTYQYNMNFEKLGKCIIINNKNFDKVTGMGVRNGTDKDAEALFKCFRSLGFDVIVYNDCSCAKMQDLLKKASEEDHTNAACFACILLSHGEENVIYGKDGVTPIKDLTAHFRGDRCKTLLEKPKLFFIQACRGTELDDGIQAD
T3 sequence (P55210 207-303 limits assumed): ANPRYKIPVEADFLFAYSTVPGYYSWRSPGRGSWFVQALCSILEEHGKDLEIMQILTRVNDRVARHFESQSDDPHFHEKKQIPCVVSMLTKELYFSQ
Source text: as §1, §2

[4] = system: IL-1β secretion from peripheral blood mononuclear cells (PBMC); assay: Inhibition of IL-1β secretion from PBMC; type: cell-based; settings: human PBMC, LPS 50 ng/ml, 16-18 h, mature IL-1β in supernatant
Protocol: Processing of pre-IL-1β by caspase-1 can be measured in cell culture using a variety of cell sources. Human PBMC obtained from healthy donors provides a mixed population of lymphocyte and mononuclear cells that produce a spectrum of interleukins and cytokines in response to many classes of physiological stimulators.
The test compound is dissolved in Dimethyl Sulphoxide (DMSO, Sigma #D-2650) to give a 100 mM stock solution. This is diluted in complete medium consisting of RPMI containing 10% heat inactivated FCS (Gibco BRL #10099-141), 2 mM L-Glutamine (Sigma, #G-7513), 100 U penicillin and 100 μg/ml streptomycin (Sigma #P-7539). The final concentration range of test compound is from 100 μM down to 6 nM over eight dilution steps. The highest concentration of test compound is equivalent to 0.1% DMSO in the assay.
Human PBMC are isolated from Buffy Coats obtained from the blood bank using centrifugation on Ficoll-Paque leukocyte separation medium (Amersham, #17-1440-02) and the cellular assay is performed in a sterile 96 well flat-bottomed plate (Nunc). Each well contains 100 μl of the cell suspension, 1×10^5 cells, 50 μl of compound dilutions and 50 μl of LPS (Sigma #L-3012) at 50 ng/ml final concentration. Controls consist of cells +/− LPS stimulation and a serial dilution of DMSO diluted in the same way as compound. […]

[5] = target: recombinant, purified human Caspase-8 (Homo sapiens, UniProt Q14790); assay: Caspase-8 enzyme assay, fluorogenic substrate cleavage; type: biochemical; settings: second order rate constant of enzyme inactivation; substrate Acetyl-Asp-Glu-Val-Asp-amino-4-methylcoumarin
Source text: as §1, §2

Jurkat E6.1 cells = assay: Anti-Fas induced apoptosis assay; type: cell-based; settings: Homo sapiens, anti-Fas antibody CH-11 10 ng/ml, 16-18 hrs, DNA fragmentation
Source text: Cellular apoptosis may be induced by the binding of Fas ligand (FasL) to its receptor, CD95 (Fas). CD95 is one of a family of related receptors, known as death receptors, which can trigger apoptosis in cells via activation of the caspase enzyme cascade. The process is initiated by the binding of the adapter molecule FADD/MORT-1 to the cytoplasmic domain of the CD-95 receptor-ligand complex. Caspase-8 then binds FADD and becomes activated, initiating a cascade of events that involve the activation of downstream caspases and subsequent cellular apoptosis. […]
Jurkat E6.1 cells are cultured in complete medium consisting of RPMI-1640 (Sigma No)+10% foetal calf serum (Gibco BRL No. 10099-141)+2 mM L-glutamine (Sigma No. G-7513). […] The cells are counted and the density adjusted to 2×10^6 cells/ml with complete medium. […]
Apoptosis of the cells is measured by the quantitation of DNA fragmentation using a ‘Cell Death Detection Assay’ from Boehringer-Mannheim, No. 1544 675. […] OD405 nm is measured 20 minutes after addition of the final substrate in a SPECTRAmax Plus plate reader (Molecular Devices). OD405 nm is plotted versus compound concentration and the IC50 values for the compounds are calculated using the curve-fitting program SOFTmax Pro (Molecular Devices) using the four parameter fit option.

Chain of recombinant, purified human Caspase-8 (Q14790 217-374 limits assumed): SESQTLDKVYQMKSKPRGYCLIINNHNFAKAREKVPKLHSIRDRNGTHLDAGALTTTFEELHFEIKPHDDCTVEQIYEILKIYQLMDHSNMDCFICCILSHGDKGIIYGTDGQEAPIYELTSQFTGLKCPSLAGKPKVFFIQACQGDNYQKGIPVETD
Chain of recombinant, purified human Caspase-8 (Q14790 385-479 limits assumed): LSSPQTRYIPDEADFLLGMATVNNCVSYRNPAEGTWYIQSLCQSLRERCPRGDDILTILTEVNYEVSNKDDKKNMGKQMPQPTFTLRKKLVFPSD

Structure (SMILES): O=C(O)CC(NC(=O)[C@@H]1CCc2nc3ccccc3c(=O)n21)C(=O)CF (stereo partly drawn) [Example 1, [3S/R(1S)]-3-(2,3-Dihydro-1H-9-oxo-pyrrolo[2,1-b]quinazolin-1-carboxamido)-5-fluoro-4-oxo-pentanoic acid]
- Kinact, Caspase-3 Activity [1]: 160500 M⁻¹ s⁻¹

Structure (SMILES): O=C(O)CC(NC(=O)[C@@H]1CCCc2nc3ccccc3c(=O)n21)C(=O)CF (stereo partly drawn) [Example 2, [3S/R(9S)]-5-Fluoro-4-oxo-3-(11-oxo-6,7,8,9-tetrahydro-11H-pyrido[2,1-b]quinazolin-9-carboxamido)-pentanoic acid]
- Kinact, Caspase-1 Activity [2]: 455000 M⁻¹ s⁻¹

Structure (SMILES): O=C(O)CC(NC(=O)[C@@H]1CCc2cc3ccccc3c(=O)n21)C(=O)CF (stereo partly drawn) [Example 3, [3S/R(3S)]-3-(2,3-Dihydro-1H-5-oxo-pyrrolo[1,2-b]isoquinolin-3-carboxamido)-5-fluoro-4-oxo-pentanoic acid]
- Kinact, Caspase-7 Activity [3]: 229000 M⁻¹ s⁻¹

Structure (SMILES): O=C(O)CC(NC(=O)[C@@H]1CCCc2cc3ccccc3c(=O)n21)C(=O)CF (stereo partly drawn) [Example 4, [3S/R(4S)]-5-Fluoro-4-oxo-3-(6-oxo-1,2,3,4-tetrahydro-6H-benzo[b]quinolizin-4-carboxamido)-pentanoic acid]
- IC50 [4]: 569 nM

Structure (SMILES): O=C(O)CC(NC(=O)[C@@H]1CCCn2c(=O)c3ccccc3c(=O)n21)C(=O)CF (stereo partly drawn) [Example 5, [3S/R(1S)]-3-(6,11-Dioxo-1,2,3,4-tetrahydro-pyridazino[1,2-b]phthalazin-1-carboxamido)-5-fluoro-4-oxo-pentanoic acid]
- Caspase-8 Kinact [5]: 82000 M⁻¹ s⁻¹

Structure (SMILES): O=C(O)CC(NC(=O)[C@@H]1CCCn2c(=O)c3nccnc3c(=O)n21)C(=O)CF (stereo partly drawn) [Example 6, [3S/R(5S)]-(9,10-Dioxo-5,6,7,8,9,10-hexahydro-1,4,8a,10a-tetraazaanthracene-5-carboxamido)-5-fluoro-4-oxo-3-pentanoic acid]
- IC50 (Jurkat E6.1 cells): 168 nM
